Reference: patent US20240390284A1, “IONIZABLE LIPIDS” (BRISTOL-MYERS SQUIBB COMPANY, priority 2023, published 2024)

Columns and labels:
Jurkat cells = assay: Cas9 mRNA/sgRNA LNP gene editing, amplicon sequencing indel percentage (CRISPR-DAV); format: cell-based; conditions: LNP formulation dosed at 20 uL into 5,000 Jurkat cells, four day incubation
Description: (§1) Lipid nanoparticles (LNPs) were generated by rapid mixing. A mixture containing ionizable lipid, DSPC, cholesterol, and DMG-PEG at a molar ratio of 45:10:44:1, respectively, in ethanol was mixed with an aqueous sample containing Cas9 mRNA and synthetic sgRNA in 100 mM sodium acetate. Molar fractions were maintained for each formulation while varying the ionizable lipid. After formulation, particles immediately neutralized by dilution into Phosphate Buffered Saline (PBS). LNP size was determined using a Wyatt Plate Reader III with default settings.
(§2) Particles were functionally tested using amplicon sequencing. For testing, each formulation was dosed at 20 uL into 5,000 HEK293 FT or Jurkat cells. After a four day incubation cells were lysed and the locus of interested was amplified with PCR primers. These PCR products are then prepared for sequencing and sequenced on a MiSeq. The sequencing data is then processed and analyzed using CRISPR-DAV, which outputs indel percentages. (Table 1) For general reference, see Xuning Wang, Charles Tilford, Isaac Neuhaus, Gabe Mintier, Qi Guo, John N Feder, Stefan Kirov, CRISPR-DAV: CRISPR NGS data analysis and visualization pipeline, Bioinformatics, Volume 33, Issue 23, December 012017, Pages 3811-3812.

HEK293 FT cells = assay: as above; format: cell-based; conditions: LNP formulation dosed at 20 uL into 5,000 HEK293 FT cells, four day incubation
Description: as §1, §2

[1] = LNP size (average radius), Wyatt Plate Reader III; format: physicochemical; conditions: LNP of ionizable lipid:DSPC:cholesterol:DMG-PEG 45:10:44:1 with Cas9 mRNA and sgRNA, 0.087 mg/ml each
Description: as §1

Row | average Radius (nm) rep1 [1] | average Radius (nm) rep2 [1] | SMILES | Indel % rep1 Jurkat (Jurkat cells) | Indel % rep2 Jurkat (Jurkat cells) | Indel % rep1 HEK293 FT (HEK293 FT cells) | Indel % rep2 Hek (HEK293 FT cells)
1 | 177.3 nm | 129.475 nm | CCCCCC=CCC=CCCCCCCCC1OC(CCN(C)C)OC1CCCCCCCCCCCCCCCCC (stereo in doubt) [Lipid 10, (2-{4-[(8Z,11Z)-heptadeca-8,11-dien-1-yl]-5-heptadecyl-1,3-dioxolan-2-yl}ethyl)dimethylamine] | 1.75% | 1.04% | 51.22% | 63.9%
2 | 142.825 nm | 136.875 nm | CCCCCCCC/C=C/CCCCCCCC1OC(CCN(C)C)OC1CCCCCCC/C=C/CCCCCCCC (stereo not drawn) [Lipid 2, (2-{4,5-Bis [(8E)-heptadec-8-en-1-yl]-1,3-dioxolan-2-yl}ethyl)dimethylamine] | 0.15% | 0.09% | 16.5% | 41.5%
3 | 92.55 nm | 91.525 nm | CCCCCCCC/C=C\CCCCCCCC1OC(CCN(C)C)OC1CCCCCCC/C=C\CCCCCCCC (stereo not drawn) [Lipid 3, (2-{4,5-Bis [(8Z)-heptadec-8-en-1-yl]-1,3-dioxolan-2-yl}ethyl)dimethylamine] | 77.31% | 66.37% | 92.23% | 90.92%
4 | 153.05 nm | 150.55 nm | CCCCC/C=C\C/C=C\CCCCCCCC1OC(CCN(C)C)OC1CCCCCCCCCCCCCCCCC (stereo not drawn) [Lipid 4, (2-{4-[(8Z,11Z)-heptadeca-8,11-dien-1-yl]-5-heptadecyl-1,3-dioxolan-2-yl}ethyl)dimethylamine] | 34.09% | 19.69% | 53.08% | 62.46%
5 | 94.25 nm | 90.275 nm | CCCCC/C=C\C/C=C\CCCC1OC(CCN(C)C)OC1CCC/C=C\C/C=C\CCCCC (stereo not drawn) [Lipid 5, {2-[4,5-Bis-((4Z,7Z)-trideca-4,7-dienyl)-[1,3]dioxolan-2-yl]-ethyl}-dimethyl-amine] | 0.11% | 0.1% | 0.09% | 0.12%
6 | 98.825 nm | 91.175 nm | CCCCC/C=C\C/C=C\CCCCCC1OC(CCN(C)C)OC1CCCCC/C=C\C/C=C\CCCCC (stereo not drawn) [Lipid 6, (2-{4,5-Bis [(6Z,9Z)-pentadeca-6,9-dien-1-yl]-1,3-dioxolan-2-yl}ethyl)dimethylamine] | 13.16% | 18.09% | 30.63% | 8.87%
7 | 116 nm | 124.85 nm | CCCCCCCC/C=C/CCCCCCCC1OC(CCN(C)C)OC1CCCCCCCCCCCCCCCCC (stereo not drawn) [Lipid 7, (2-{4-[(8E)-heptadec-8-en-1-yl]-5-heptadecyl-1,3-dioxolan-2-yl}ethyl)dimethylamine] | 0.06% | 0.02% | 2.58% | 2.29%
8 | 135.075 nm | 146.35 nm | CCCCCCCC/C=C\CCCCCCCC1OC(CCN(C)C)OC1CCCCCCCCCCCCCCCCC (stereo not drawn) [Lipid 8, (2-{4-[(8Z)-Heptadec-8-en-1-yl]-5-heptadecyl-1,3-dioxolan-2-yl}ethyl)dimethylamine] | 2.26% | 0.37% | 67.32% | 74.04%
9 | 105 nm | 101.525 nm | CCCCC/C=C/C/C=C/CCCCCCCC1OC(CCN(C)C)OC1CCCCCCC/C=C/C/C=C/CCCCC (stereo not drawn) [Lipid 9, (2-{4,5-Bis [(8E,11E)-heptadeca-8,11-dien-1-yl]-1,3-dioxolan-2-yl}ethyl)dimethylamine] | 15.29% | 10% | 84.41% | 66.39%
10 | 122.675 nm | 109.475 nm | CCCCC/C=C\C/C=C\CCCCCCCC1OC(CCCN(C)C)OC1CCCCCCC/C=C\C/C=C\CCCCC (stereo not drawn) [Lipid 11] | 70.3% | 65.07% | 93.59% | 95.87%
